Assay results from paper PMC12112033, “Application of Lipophilic Prodrug Charge Masking Strategy to Obtain Novel, Potential Oxytocin Prodrugs” (International Journal of Molecular Sciences, 2025).

How the values were obtained:
in vitro [1] = conditions: for Papp at 5 h, 10 µM: PAMPA, pH 7.4, Papp ± SD (PAMPA)
Excerpt: The permeability of OT and its prodrugs was estimated by the PAMPA test (Corning, Gentest PAMPA Plate System). The PAMPA method is a common method for the permeability evaluation of early drug candidates. Although this system lacks transporters, paracellular pathway enzymes, and other cell-associated processes, it measures passive diffusion, the primary mechanism by which drugs traverse biological barriers. Consequently, due to its low cost, high throughput, and relative handling ease, it serves as screening tool for predicting drugs absorption potential. The PAMPA reflects the passive transport through biological membranes, and its results are reported to correlate with those obtained from the Caco-2 cell model.
A Gentest Pre-coated PAMPA Plate System was purchased from Corning® (Tewksbury, MA, USA). The assay was performed according to the provider instructions, following Caco-2 convention, where the top well is a donor well. The 10 µM solutions of OT, prodrugs, and permeability markers were prepared in PBS buffer, pH 7.4, from 1 mM stock solutions in dimethyl sulfoxide (DMSO). A total of 300 µL per well of tested compounds was added to the donor, filter plate, which, after distribution of all samples, was coupled with acceptor plate filed with 200 µL of phosphate-buffered saline (PBS) per well. All compounds were measured in triplicate. After 5 h of incubation at 25 °C, 200 µL samples were collected from acceptor and donor wells and analyzed using UHPLC-MS to determine concentrations of compounds.

Caco-2 cell monolayer [2] = assay: Caco-2 monolayer integrity by TEER before and after treatment; assay type: cell-based, human; conditions: 100 µg/mL, 2 h treatment
Procedure: This assessment was performed using a dose (100 µg/mL) and treatment time (2 h) similar to those applied in the intestinal transport analysis.
Caco-2 cells were cultured at 37 °C under a 5% CO2 atmosphere using Dulbecco’s Modified Eagle’s Medium (DMEM), supplemented with 20% (v/v) fetal bovine serum, non-essential amino acids 100×, and gentamycin (50 mg/mL). […] The culture medium was replaced every 2 days.

in vitro [3] = conditions: human, Caco-2
Procedure: (§1) The transport of OT and its derivatives (Oct-OT, Hoc-OT, Dec-OT, Dod-OT) selected for further in vitro studies was evaluated at a target concentration of approximately 100 µg/mL. Intestinal transport was initiated by adding the tested compounds to the apical compartment for absorptive transport determination. The solutions from the acceptor compartments were sampled at 20-minute intervals to analyze the concentration of transported compounds.
(§2) The Caco-2 cell line (ATCC HTB-37), derived from human colon adenocarcinoma, was obtained from the American Type Culture Collection (ATCC, Manassas, VA, USA). Caco-2 cells were cultured at 37 °C under a 5% CO2 atmosphere using Dulbecco’s Modified Eagle’s Medium (DMEM), supplemented with 20% (v/v) fetal bovine serum, non-essential amino acids 100×, and gentamycin (50 mg/mL). For experiments, the Caco-2 cells were plated at a density of 4 × 10^5 cells per cm^2 on polyethylene terephthalate (PET) capillary pore membranes with a pore size of 0.4 μm and a growth surface area of 1.13 cm^2 (Greiner PET hanging). The culture medium was replaced every 2 days. All experiments were performed on differentiated Caco-2 cell monolayers 21 days post-seeding. To check the integrity of the Caco-2 monolayer, transepithelial electrical resistance (TEER) was measured by employing the Millicell Electrical Resistance System (Millipore, Bedford, MA, USA). Moreover, fluorescein-5(6)-sulfonic acid was used as a transport marker, added to the apical side of the Caco-2 cultures at 200 μg/mL concentration. Fluoresceinated sulfonic acid, with a molecular weight of 478 Da, is a hydrophilic, charged molecule at physiological pH and is considered cell impermeable. Unless specified otherwise, all chemicals were purchased from Merck KGaA (Darmstadt, Germany).
(§3) The analyzed compounds at non-cytotoxic concentration of approximately 100 μg/mL were prepared in Hank’s balanced salt solution (HBSS), which was adapted as a transport medium. […] Before the experiments, the Caco-2 monolayers were washed twice with HBSS and pre-incubated at 37 °C for 30 min. Transport was initiated by adding HBSS to the acceptor (basolateral) side and the analyzed compound to the donor (apical) side, which mimicked absorptive intestinal transport. The Caco-2 cell cultures were placed in the incubator (37 °C) and continuously agitated using a plate shaker (120 rpm). At 20 min intervals, a sample was taken from the acceptor compartment, and HPLC analyzed the concentration of the transported compound. Each sample volume was replaced with fresh HBSS warmed to 37 °C. To quantify the transport of compound across the Caco-2 cell monolayer, the apparent permeability coefficient (Papp) was determined according to the protocol previously described by Tavelin et al.. […]

Caco-2 cell monolayer [4] = assay: in vitro
Procedure: as §1, §2, §3

[5] = cited from earlier work

Row | Compound | Papp at 5 h, 10 µM (in vitro [1]) [×10⁻⁶ cm/s] | Caco-2 monolayer integrity (TEER before and after treatment) (Caco-2 cell monolayer [2]) | PAMPA permeability (in words) (in vitro [1]) | Papp A→B (in vitro [3]) [×10⁻⁶ cm/s] | Caco-2 permeability compared to OT (in words) (Caco-2 cell monolayer [4]) | Mass Retention (PAMPA) (in vitro [1]; 5 h, 10 µM, pH 7.4) [%] | Time to peak levels after intranasal administration [5] [min]
1 | CCCCOC(=O)N[C@H]1CSSC[C@@H](C(=O)N2CCC[C@H]2C(=O)N[C@@H](CC(C)C)C(=O)NCC(N)=O)NC(=O)[C@H](CC(N)=O)NC(=O)[C@H](CCC(N)=O)NC(=O)[C@H]([C@@H](C)CC)NC(=O)[C@H](Cc2ccc(O)cc2)NC1=O [But-OT, But-Cys(&)-Tyr-Ile-Gln-Asn-Cys(&)-Pro-Leu-Gly-NH2] | 2.2 ± 0.3 |  |  |  |  |  | 
2 | Cn1c(=O)c2c(ncn2C)n(C)c1=O [Caffeine, reference compound] | 22 ± 11.2 |  |  |  |  | 26 | 
3 | CCCCCCCCCCOC(=O)N[C@H]1CSSC[C@@H](C(=O)N2CCC[C@H]2C(=O)N[C@@H](CC(C)C)C(=O)NCC(N)=O)NC(=O)[C@H](CC(N)=O)NC(=O)[C@H](CCC(N)=O)NC(=O)[C@H]([C@@H](C)CC)NC(=O)[C@H](Cc2ccc(O)cc2)NC1=O [Dec-OT, Dec-Cys(&)-Tyr-Ile-Gln-Asn-Cys(&)-Pro-Leu-Gly-NH2] | 9.28 ± 6.11 | stable and high monolayer integrity | significantly better permeability |  |  |  | 
4 | CCCCCCCCCCCCOC(=O)N[C@H]1CSSC[C@@H](C(=O)N2CCC[C@H]2C(=O)N[C@@H](CC(C)C)C(=O)NCC(N)=O)NC(=O)[C@H](CC(N)=O)NC(=O)[C@H](CCC(N)=O)NC(=O)[C@H]([C@@H](C)CC)NC(=O)[C@H](Cc2ccc(O)cc2)NC1=O [Dod-OT, Dod-Cys(&)-Tyr-Ile-Gln-Asn-Cys(&)-Pro-Leu-Gly-NH2] | 1.08 ± 0.95 | stable and high monolayer integrity | poor permeability |  |  |  | 
5 | CCOC(=O)N[C@H]1CSSC[C@@H](C(=O)N2CCC[C@H]2C(=O)N[C@@H](CC(C)C)C(=O)NCC(N)=O)NC(=O)[C@H](CC(N)=O)NC(=O)[C@H](CCC(N)=O)NC(=O)[C@H]([C@@H](C)CC)NC(=O)[C@H](Cc2ccc(O)cc2)NC1=O [Et-OT, Et-Cys(&)-Tyr-Ile-Gln-Asn-Cys(&)-Pro-Leu-Gly-NH2] | 2.78 ± 0.17 |  |  |  |  |  | 

Now from value to compound, other results behind:

Row | Papp at 5 h, 10 µM (in vitro [1]) [×10⁻⁶ cm/s] | Caco-2 monolayer integrity (TEER before and after treatment) (Caco-2 cell monolayer [2]) | PAMPA permeability (in words) (in vitro [1]) | Papp A→B (in vitro [3]) [×10⁻⁶ cm/s] | Caco-2 permeability compared to OT (in words) (Caco-2 cell monolayer [4]) | Compound | Mass Retention (PAMPA) (in vitro [1]; 5 h, 10 µM, pH 7.4) [%] | Time to peak levels after intranasal administration [5] [min]
6 | 4.67 ± 0.66 | stable and high monolayer integrity | significantly better permeability | 1.99 ± 0.33 | lower permeability than OT | CCCCCCOC(=O)N[C@H]1CSSC[C@@H](C(=O)N2CCC[C@H]2C(=O)N[C@@H](CC(C)C)C(=O)NCC(N)=O)NC(=O)[C@H](CC(N)=O)NC(=O)[C@H](CCC(N)=O)NC(=O)[C@H]([C@@H](C)CC)NC(=O)[C@H](Cc2ccc(O)cc2)NC1=O [Hoc-OT, Hoc-Cys(&)-Tyr-Ile-Gln-Asn-Cys(&)-Pro-Leu-Gly-NH2] |  | 
7 | 2.37 ± 0.52 |  |  |  |  | CC[C@H](C)[C@@H]1NC(=O)[C@H](Cc2ccc(O)cc2)NC(=O)[C@@H](NC(=O)OCCOC)CSSC[C@@H](C(=O)N2CCC[C@H]2C(=O)N[C@@H](CC(C)C)C(=O)NCC(N)=O)NC(=O)[C@H](CC(N)=O)NC(=O)[C@H](CCC(N)=O)NC1=O [MeOEt-OT, MeOEt-Cys(&)-Tyr-Ile-Gln-Asn-Cys(&)-Pro-Leu-Gly-NH2] |  | 
8 | 2.2 | stable and high monolayer integrity |  | 7.74 ± 0.53 |  | CC[C@H](C)[C@@H]1NC(=O)[C@H](Cc2ccc(O)cc2)NC(=O)[C@@H](N)CSSC[C@@H](C(=O)N2CCC[C@H]2C(=O)N[C@@H](CC(C)C)C(=O)NCC(N)=O)NC(=O)[C@H](CC(N)=O)NC(=O)[C@H](CCC(N)=O)NC1=O [OT, Cys(&)-Tyr-Ile-Gln-Asn-Cys(&)-Pro-Leu-Gly-NH2, reference compound] |  | 15 to 30
9 | 5.93 ± 0.86 | stable and high monolayer integrity | significantly better permeability | 14 ± 2.27 |  | CCCCCCCCOC(=O)N[C@H]1CSSC[C@@H](C(=O)N2CCC[C@H]2C(=O)N[C@@H](CC(C)C)C(=O)NCC(N)=O)NC(=O)[C@H](CC(N)=O)NC(=O)[C@H](CCC(N)=O)NC(=O)[C@H]([C@@H](C)CC)NC(=O)[C@H](Cc2ccc(O)cc2)NC1=O [Oct-OT, Oct-Cys(&)-Tyr-Ile-Gln-Asn-Cys(&)-Pro-Leu-Gly-NH2] |  | 
10 | 2.97 ± 0.64 |  |  |  |  | CCCOC(=O)N[C@H]1CSSC[C@@H](C(=O)N2CCC[C@H]2C(=O)N[C@@H](CC(C)C)C(=O)NCC(N)=O)NC(=O)[C@H](CC(N)=O)NC(=O)[C@H](CCC(N)=O)NC(=O)[C@H]([C@@H](C)CC)NC(=O)[C@H](Cc2ccc(O)cc2)NC1=O [Prop-OT, Prop-Cys(&)-Tyr-Ile-Gln-Asn-Cys(&)-Pro-Leu-Gly-NH2] |  | 
